Measurements reported in patent US20240051931A1, “HDAC INHIBITORS” (University of Pittsburgh - Of the Commonwealth System of …, priority 2020, published 2024).

Legend:
HDAC 6 = target: T1, HDAC 6 (Homo sapiens, UniProt Q9UBN7); experiment: HDAC 6 activity at fixed concentration (Table 2); type: biochemical; set-up: unit not given here; settings: compound at 50 nM
T1 sequence (Q9UBN7 1-1215): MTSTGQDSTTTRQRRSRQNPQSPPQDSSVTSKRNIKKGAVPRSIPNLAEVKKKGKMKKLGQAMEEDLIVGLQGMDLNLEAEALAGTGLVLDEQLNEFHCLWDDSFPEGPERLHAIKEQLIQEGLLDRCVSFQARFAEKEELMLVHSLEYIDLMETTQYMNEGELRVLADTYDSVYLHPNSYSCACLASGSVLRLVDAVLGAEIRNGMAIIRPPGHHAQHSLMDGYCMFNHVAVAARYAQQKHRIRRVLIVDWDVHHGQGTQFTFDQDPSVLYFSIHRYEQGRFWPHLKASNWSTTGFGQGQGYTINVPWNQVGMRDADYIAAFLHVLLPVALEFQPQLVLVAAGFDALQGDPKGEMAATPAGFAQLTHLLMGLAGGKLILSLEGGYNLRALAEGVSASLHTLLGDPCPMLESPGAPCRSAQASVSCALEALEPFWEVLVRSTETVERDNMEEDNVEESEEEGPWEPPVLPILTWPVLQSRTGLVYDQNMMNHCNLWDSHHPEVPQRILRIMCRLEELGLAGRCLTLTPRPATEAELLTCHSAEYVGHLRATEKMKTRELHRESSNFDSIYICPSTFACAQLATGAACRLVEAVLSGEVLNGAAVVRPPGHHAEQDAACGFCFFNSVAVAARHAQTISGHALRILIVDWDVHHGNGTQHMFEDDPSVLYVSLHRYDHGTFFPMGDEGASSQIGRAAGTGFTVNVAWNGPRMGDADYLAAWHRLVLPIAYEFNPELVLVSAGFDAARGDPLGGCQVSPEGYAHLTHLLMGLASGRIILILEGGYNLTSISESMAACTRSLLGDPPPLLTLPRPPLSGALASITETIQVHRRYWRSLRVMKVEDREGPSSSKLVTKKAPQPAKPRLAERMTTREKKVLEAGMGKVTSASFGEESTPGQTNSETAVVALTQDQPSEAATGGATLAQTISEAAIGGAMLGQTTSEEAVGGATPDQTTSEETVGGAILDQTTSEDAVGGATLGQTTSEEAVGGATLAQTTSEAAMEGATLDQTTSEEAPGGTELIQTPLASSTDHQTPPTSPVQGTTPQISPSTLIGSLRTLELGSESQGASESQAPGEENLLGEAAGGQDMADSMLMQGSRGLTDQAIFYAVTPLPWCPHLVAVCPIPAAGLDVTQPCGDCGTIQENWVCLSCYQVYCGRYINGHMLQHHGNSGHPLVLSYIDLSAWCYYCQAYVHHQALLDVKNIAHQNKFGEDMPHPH

PanHDAC = PanHDAC activity at fixed concentration (Table 2); type: biochemical; set-up: unit not given here; settings: compound at 1 uM

Structure (SMILES)	melting point	HDAC 6 at 50 nM (HDAC 6)	PanHDAC at 1 uM (PanHDAC)
Cl.O=C(CN1CCC2(CCc3cc(F)ccc3O2)CC1)NO	200 to 203 °C	–	–
O=C(Nc1cccc2c1OC(C(=O)NO)CC2)OCc1ccccc1Cl (racemic) [Compound 11L, 2-Chlorobenzyl (2-(hydroxycarbamoyl)chroman-8-yl)carbamate]	182 to 188 °C	–	–
C[C@@H]1Cc2ccccc2O[C@@H]1C(=O)NO (relative stereo) [Compound 73, (rel)-(2S,3R)—N-Hydroxy-3-methylchromane-2-carboxamide]	156 to 160 °C	–	–
CO[C@@H]1C[C@@H](C(=O)NO)Oc2ccccc21 (relative stereo) [Compound 85, (rel)-(2S,4R)—N-Hydroxy-4-methoxychromane-2-carboxamide]	102 to 104 °C	–	–
O=C(NO)[C@@H]1CCc2ccc(-c3ccc(F)c(Cl)c3)cc2O1 [(S)-58d, (S)-7-(3-Chloro-4-fluorophenyl)-N-hydroxychromane-2-carboxamide]	173 to 174 °C	–	–
O=C(NO)[C@@H]1CCc2ccc(-c3ccc(Cl)c(Cl)c3)cc2O1 [(S)-58e, (S)-7-(3,4-Dichlorophenyl)-N-hydroxychromane-2-carboxamide]	134 to 136 °C	–	–
O=C(Nc1cccc2c1O[C@@H](C(=O)NO)CC2)OCc1ccccc1Cl [+11L, 2-Chlorobenzyl (R)-(2-(hydroxycarbamoyl)chroman-8-yl)carbamate]	173 to 175 °C	–	–
O=C(NO)C1CCc2cc(NS(=O)(=O)c3cccc4ccccc34)ccc2O1 (stereo not drawn) [Compound 1-51]	–	64	8
COc1ccc(CNC(=O)Nc2ccc3c(c2)CCC(C(=O)NO)O3)cc1 (stereo not drawn) [Compound 1-52]	–	0	0
O=C(COc1ccccc1Cl)Nc1cccc2c1O[C@H](C(=O)NO)CC2 [Compound 1-53]	–	25	0
O=C(NO)C1CCc2ccc(-c3ccc(Cl)c(Cl)c3)cc2O1 (stereo not drawn) [Compound 1-54]	–	39	0
Cn1ccc2cc(-c3ccc4c(c3)OC(C(=O)NO)CC4)ccc21 (stereo not drawn) [Compound 1-55]	–	44	0
COc1ccc(-c2ccc3c(c2)OC(C(=O)NO)CC3)cc1 (stereo not drawn) [Compound 1-56]	–	13	0
O=C(Nc1ccc2c(c1)CC[C@@H](C(=O)NO)O2)c1ccc(-c2ccccc2)cc1 [Compound 1-57]	–	7	0
O=C(NO)[C@H]1CCc2ccc(OCc3ccc(Cl)cc3)cc2O1 [Compound 1-58]	–	31	0
O=C(NO)[C@@H]1CCc2ccc(OCc3ccc(Cl)cc3)cc2O1 [Compound 1-59]	–	0	0
COc1cccc(COC(=O)Nc2cccc3c2O[C@H](C(=O)NO)CC3)c1 [Compound 1-60]	–	33	0
O=C(NO)[C@@H]1CCc2ccc(-c3ccc(Cl)c(Cl)c3)cc2O1 [Compound 1-61]	–	41	0
O=C(Nc1cccc2c1O[C@H](C(=O)NO)CC2)OCc1ccc(Cl)cc1 [Compound 1-62]	–	32	0

Structure (SMILES)	melting point	HDAC 6 at 50 nM (HDAC 6)	PanHDAC at 1 uM (PanHDAC)
O=C(Nc1cccc2c1O[C@H](C(=O)NO)CC2)OCc1ccc(Cl)c(Cl)c1 [Compound 1-63]	–	45	0
O=C(NO)[C@@H]1CCc2ccc(-c3ccc(F)c(Cl)c3)cc2O1 [Compound 1-64]	–	47	3
O=C(NO)[C@@H]1CCc2ccc(OCc3ccccc3Cl)cc2O1 [Compound 1-65]	–	17	0
COc1ccccc1COC(=O)Nc1cccc2c1O[C@H](C(=O)NO)CC2 [Compound 1-66]	–	31	0
O=C(Nc1ccc(F)cc1)Nc1cccc2c1OC(C(=O)NO)CC2 (stereo not drawn) [Compound 11c, 8-(3-(4-Fluorophenyl)ureido)-N-hydroxychromane-2-carboxamide]	231 to 232 °C	–	–
O=C(NCc1ccccc1)Nc1cccc2c1OC(C(=O)NO)CC2 (stereo not drawn) [Compound 11e, 8-(3-Benzylureido)-N-hydroxychromane-2-carboxamide]	187 to 190 °C	–	–
O=C(Nc1cccc2c1OC(C(=O)NO)CC2)OCc1ccc(C(F)(F)F)cc1 (stereo not drawn) [Compound 11f, 4-(Trifluoromethyl)benzyl (2-(hydroxycarbamoyl)chroman-8-yl)carbamate]	102 to 104 °C	–	–
COc1cccc(COC(=O)Nc2cccc3c2O[C@H](C(=O)NO)CC3)c1 [Compound 11g, 3-methoxybenzyl (S)-(2-(hydroxycarbamoyl)chroman-8-yl)carbamate]	71 to 73 °C	–	–
O=C(Nc1cccc2c1O[C@H](C(=O)NO)CC2)OCc1ccc(Cl)cc1 [Compound 11h, 4-Chlorobenzyl (S)-(2-(hydroxycarbamoyl)chroman-8-yl)carbamate]	155 to 157 °C	–	–
O=C(NO)C1CCc2cccc(NS(=O)(=O)c3ccc(F)cc3)c2O1 (stereo not drawn) [Compound 11m, 8-((4-Fluorophenyl)sulfonamido)-N-hydroxychromane-2-carboxamide]	237 to 239 °C	–	–
O=C(NO)C1CCc2cccc(NS(=O)(=O)c3cccc4ccccc34)c2O1 (stereo not drawn) [Compound 11n, N-Hydroxy-8-(naphthalene-1-sulfonamido)chromane-2-carboxamide]	219 to 221 °C	–	–
CS(=O)(=O)Nc1cccc2c1OC(C(=O)NO)CC2 (stereo not drawn) [Compound 11o, N-Hydroxy-8-(methylsulfonamido)chromane-2-carboxamide]	181 to 183 °C	–	–
Cc1ccc(S(=O)(=O)Nc2cccc3c2OC(C(=O)NO)CC3)cc1 (stereo not drawn) [Compound 11p, N-Hydroxy-8-((4-methylphenyl)sulfonamido)chromane-2-carboxamide]	235 to 237 °C	–	–
O=C(Nc1ccc2c(c1)CCC(C(=O)NO)O2)c1ccc(S(F)(F)(F)(F)F)cc1 (stereo not drawn) [Compound 14c, N-Hydroxy-6-(4-(pentafluoro-λ^6-sulfaneyl)benzamido)chromane-2-carboxamide]	214 to 216 °C	–	–
O=C(NCc1ccc(Cl)c(C(F)(F)F)c1)Nc1cccc2c1OC(C(=O)NO)CC2 (stereo not drawn) [Compound 14i, 8-(3-(4-Chloro-3-(trifluoromethyl)benzyl)ureido)-N-hydroxychromane-2-carboxamide]	195 to 197 °C	–	–
COc1ccc(COC(=O)Nc2ccc3c(c2)CCC(C(=O)NO)O3)cc1 (stereo not drawn) [Compound 14j, 4-Methoxybenzyl (2-(hydroxycarbamoyl)chroman-6-yl)carbamate]	149 to 151 °C	–	–
O=C(Nc1ccc2c(c1)CCC(C(=O)NO)O2)OCc1ccccc1Cl (stereo not drawn) [Compound 14k, 2-Chlorobenzyl (2-(hydroxycarbamoyl)chroman-6-yl)carbamate]	188 to 189 °C	–	–
O=C(NO)C1CCc2cc(NS(=O)(=O)c3cc(Cl)cc(Cl)c3)ccc2O1 (stereo not drawn) [Compound 14n, 6-((3,5-Dichlorophenyl)sulfonamido)-N-hydroxychromane-2-carboxamide]	156 to 170 °C	–	–
CC(C)NC(=O)ONC(=O)C1CCc2cc(NC(=O)c3ccc(-c4ccccc4)cc3)ccc2O1 (stereo not drawn) [Compound 15, 6-([1,1′-Biphenyl]-4-carboxamido)-N-((isopropylcarbamoyl)oxy)chromane-2-carboxamide]	200 °C (dec.)	–	–
